Measured values from patent publication EP2326328B1, “USE OF DIHYDRALAZINE FOR THE TREATMENT OF DISEASES RELATED TO ELEVATED SEMICARBAZIDE SENSITIVE AMINE-OXIDASE (SSAO) ACTIVITY” (Semmelweis Egyetem, priority 2008, dated 2010).

Test: blood pressure and pulse of treated type 2 diabetic patients
Assay type: in vivo, human
Details: type 2 diabetic patients, oral 14.5 mg dihydralazine sulphate twice daily
Method: After giving their informed consent, patients participating in the study were treated for 56 days taking ½ tablet twice daily of a pharmaceutical composition containing 28.9 mg dihydralazine sulphate (i.e. the ½ tablet contained 14.5 mg dihydralazine sulphate).
To measure the efficacy and monitor the safety of the treatment, the following examinations were carried out before starting the treatment and at the 1., 7., 14., 28. and 56. day of the treatment: • 1. ocular examinations: visual acuity (ETDRS chart), slit-lamp examination, measurement of intraocular pressure with applanation tonometry, fundus biomicroscopy with pupil dilation, digital fundus photography. The grade of macular edema was determined via measuring retinal thickness with optical coherency tomography (OCT). • 2. internal medicine examinations: anamnesis, physical examinations, blood pressure, pulse, urine examination. • 3. laboratory examinations: blood glucose, HbA1c, liver function, kidney function, microalbuminuria, metabolic panel of the blood , lipids, CRP.
In the table the following abbreviations were used: • BMI: body mass index - weight (kg) / height (m^2) • RRsyst: blood pressure (systolic) (Hgmm) • RRdiast: blood pressure (diastolic) (Hgmm) • OCT CST (central subfield thickness): the average thickness of the central 1-mm area of the macula • OCT CPT (center point thickness): the thickness of the center point of the retina; normally that is the thinnest point of the macula Table 4.

For dihydralazine sulphate, the blood pressure was “no appreciable lowering of blood pressure was observed”.
